We go through 16 compounds from article PMC1563472, “In vitro growth inhibition of bloodstream forms of Trypanosoma brucei and Trypanosoma congolense by iron chelators” (Kinetoplastid Biology and Disease, 2006).

Where two headings read alike, the source gives them in different places.

The test system of experiment [1] is bloodstream forms of T. brucei 427-221a. As to the kind of experiment: Alamar Blue growth inhibition assay, T. brucei bloodstream forms. The class given is cell-based, Trypanosoma brucei. The settings on record: for IC50 ratio T. brucei/HL-60: IC50 ratio of cytotoxic to trypanocidal activity (selectivity index); for IC50: read-out: IC50 T. brucei. Here is the method: (§1) The anti-trypanosomal activities and the general cytotoxicities of chelators were evaluated using the Alamar Blue® assay. For each reagent, the 50% inhibitory concentration (IC50) value, i.e. the concentration of a compound necessary to reduce the growth rate of the cells by 50% of that of controls, was determined.
(§2) Bloodstream forms of T. brucei TC221 was derived from the stock 427 [24] and was obtained from Prof. Peter Overath (Max-Planck Institute für Biologie, Tübingen, Germany). The animal origin of the T. brucei stock 427 cannot be definitely clarified anymore. Bloodstream forms of T. congolense STIB910 was cloned from T. congolense STIB249 which was isolated from a lion in Tansania in 1971 [25]. T. congolense STIB910 was kindly provided by Prof. Reto Brun (Swiss Tropical Institute, Switzerland). Human myeloid leukaemia HL-60 cells were obtained from the Deutsche Sammlung von Mikroorganismen und Zellkulturen GmbH (Braunschweig, Germany).
(§3) Bloodstream forms of T. brucei and T. congolense were grown in Baltz medium (EMEM plus 25 mM HEPES, 2.5 mM glucose, 1 mM Na-pyruvate, 0.05 mM hypoxanthine, 0.001 mM thymidine, 0.04 mM adenosine, 0.025 mM bathocuproindisulfonic acid, pH 7.5, 10 ml/l nonessential amino acids (100×)) supplemented with 16.7% heat-inactivated foetal bovine serum and goat serum, respectively, and 0.2 mM 2-mercaptoethanol. Human myeloid leukaemia HL-60 cells were propagated in RPMI 1640 medium supplemented with 2 mM L-glutamine and 10% heat-inactivated foetal bovine serum. All cultures were maintained in a humidified atmosphere containing 5% CO2 at 37°C (T. brucei and HL-60 cells) or at 34°C (T. congolense).
(§4) Cells were seeded into 96-well tissue culture plates in 200 μl medium containing various concentrations of chelators dissolved in H2O (deferoxamine, 2,3-dihydroxybenzoic acid, ethylenediamine-di-o-hydroxyphenylacetic acid, 5-sulfosalicylic acid, tropolone, 5-methyl-tropolone, 2,2'-bipyridine, 1,10-phenanthroline), 99% ethanol (2,4,6-tris(2pyridyl)-1,3,5-triazine, 4,7-diphenyl-1,10-phenanthroline, 8-hydroxyquinoline, dimethylglyoxime, quercetin), or 100% DMSO (bathocuproine). The controls contained the respective solvent alone. […] To ensure that the cells were in logarithmic growth phase during the entire experiment, they were seeded at an initial density of 1 × 10^4 T. brucei/ml, 4 × 10^5 T. congolense/ml, and 1 × 10^5 HL-60/ml, respectively. After 24 h (trypanosomes) or 43 h (HL-60) incubation, 20 μl of the colorimetric viability indicator Alamar Blue® was added to each well. The cells were incubated for a further 24 h (trypanosomes) or 5 h (HL-60) so that the total incubation time was 48 h. Then, the plates were read on a Dynatech MR5000 ELISA reader (Denkendorf, Germany), using a test wavelength of 550 nm and a reference wave length of 630 nm. Each test was set up in duplicate and repeated three times. The IC50 value was determined by linear interpolation according to the method described in [27].

The subject of experiment [2] is bloodstream forms of T. congolense STIB910. Nature of the experiment: Alamar Blue growth inhibition assay, T. congolense bloodstream forms. It is filed as cell-based, Trypanosoma congolense. The note with it: for IC50 ratio T. congolense/HL-60: IC50 ratio of cytotoxic to trypanocidal activity (selectivity index); for IC50: read-out: IC50 T. congolense. Here is the method:
as §1, §2, §3, §4

The subject of experiment [3] is human myeloid leukaemia HL-60 cells. As to the kind of experiment: Alamar Blue general cytotoxicity assay, HL-60 cells. The class given is cell-based. The note with it: read-out: IC50 HL-60 cells. Here is the method: as §1, §2, §3, §4
(In general: Alamar Blue is a resazurin reagent that responds to reducing activity.)

Experiment [4] relates to bloodstream forms of T. congolense STIB910. On the set-up: method as in PMID 11582539. The settings on record: bloodstream forms of T. congolense STIB910, identical experimental conditions; cited from earlier work.
In experiment [5] the test system is bloodstream forms of T. brucei 427-221a. On the set-up: method as in PMID 11582539. The settings on record: cited from earlier work.
Where [6] appears, read: Trypanosoma brucei, bloodstream forms T. brucei 427-221a, 48 h total incubation, Alamar Blue, 37°C.
[7] abbreviates: Trypanosoma congolense, bloodstream forms T. congolense STIB910, 48 h total incubation, Alamar Blue, 34°C.
[8] abbreviates: human myeloid leukaemia HL-60 cells, 48 h total incubation, Alamar Blue.
The mark [9] stands for this setting: Trypanosoma congolense, STIB910, 48 h.
Where [10] appears, read: bloodstream forms T. brucei 427-221a, 48 h total incubation, Alamar Blue, 37°C.

As usually defined, the IC50 is the concentration at which inhibition is half-maximal.

On to `c1cnc2c(c1)ccc1cccnc12` [1,10-Phenanthroline], for which the “IC50 ratio T. brucei/HL-60” value in experiment [1] was 2.6. For the same compound, the IC50 in experiment [1] (setting [6]) worked out at 3.3 µM; in experiment [2] (setting [7]) it was 5.3 µM; in experiment [3] (setting [8]), 8.5 µM. The “IC50 ratio T. congolense/HL-60” value in experiment [2] was 1.6.
For the compound `c1ccc(-c2ccccn2)nc1` [2,2'-Bipyridine], the IC50 was 46.2 µM in experiment [1] (Trypanosoma brucei, 48 h); 67 µM in experiment [2] (setting [9]); 28.3 µM in experiment [3] (Homo sapiens, HL-60, 48 h).
For `O=C(O)c1cccc(O)c1O` [2,3-Dihydroxybenzoic acid], the concentration for half-maximal inhibition (IC50) in experiment [1] (setting [6]) was 220 µM.
As for `c1ccc(-c2nc(-c3ccccn3)nc(-c3ccccn3)n2)nc1` [2,4,6-Tris(2-pyridyl)-1,3,5-triazine], the “IC50 ratio T. brucei/HL-60” value in experiment [1] is reported as 3.2. Besides, the figures for the IC50 in experiment [1] (setting [6]), in experiment [2] (setting [7]) and in experiment [3] (setting [8]) were 28.6 µM, 75 µM and 90.1 µM, respectively. Moreover, in experiment [2], the “IC50 ratio T. congolense/HL-60” value stood at 1.2.
With `c1ccc(-c2ccnc3c2ccc2c(-c4ccccc4)ccnc23)cc1` [4,7-Diphenyl-1,10-phenanthroline], the half-inhibitory concentration (IC50) was 2 µM in experiment [1] (setting [6]), 4.5 µM in experiment [2] (setting [7]) and 48.3 µM in experiment [3] (setting [8]).
As to `Cc1ccc(O)c(=O)cc1` [5-Methyl-tropolone], the “IC50 ratio T. brucei/HL-60” value in experiment [1] turned out to be 2.0. For the same compound, the IC50 in experiment [1] (setting [10]) was found to be 15.7 µM; in experiment [2] (bloodstream forms T. congolense STIB910, 48 h total incubation, Alamar Blue, 34°C), 20 µM; in experiment [3] (setting [8]) it was 31.1 µM. Also, in experiment [2], the “IC50 ratio T. congolense/HL-60” value is listed as 1.6.
Consider `O=C(O)c1cc(S(=O)(=O)O)ccc1O` [5-Sulfosalicylic acid], for which the IC50 in experiment [1] (Trypanosoma brucei, 48 h) is more than 1000 µM; in experiment [2] (setting [9]) it was more than 1000 µM; in experiment [3] (Homo sapiens, HL-60, 48 h), more than 1000 µM.
For the compound `Oc1cccc2cccnc12` [8-Hydroxyquinoline], the concentration for half-maximal inhibition (IC50) in experiment [1] (Trypanosoma brucei, 48 h) turned out to be 2.1 µM; in experiment [2] (setting [9]), 206 µM; in experiment [3] (Homo sapiens, HL-60, 48 h), 7.7 µM.
For `Cc1cc(-c2ccccc2)c2ccc3c(-c4ccccc4)cc(C)nc3c2n1` [Bathocuproine, 2,9-dimethyl-4,7-diphenyl-1,10-phenanthroline], in experiment [1], the “IC50 ratio T. brucei/HL-60” value is recorded as more than 3.3. The IC50 in experiment [1] (setting [6]) was 3 µM; in experiment [2] (setting [7]), more than 10 µM; in experiment [3] (setting [8]), more than 10 µM.
On to `CC(=O)N(O)CCCCCNC(=O)CCC(=O)N(O)CCCCCNC(=O)CCC(=O)N(O)CCCCCN` [Deferoxamine], for which the half-maximal inhibitory concentration (IC50) in experiment [1] (Trypanosoma brucei, 48 h) was determined as 3.3 µM; in experiment [2] (setting [9]) it was 3.4 µM; in experiment [3] (Homo sapiens, HL-60, 48 h), 97 µM.
For `CC(=NO)C(C)=NO` [Dimethylglyoxime], the half-inhibitory concentration (IC50) in experiment [1] (setting [6]), in experiment [2] (setting [7]) and in experiment [3] (setting [8]) was more than 100 µM throughout.
As to `O=C(O)C(NCCNC(C(=O)O)c1ccccc1O)c1ccccc1O` (stereo not drawn) [Ethylenediamine-di-o-hydroxyphenylacetic acid], the “IC50 ratio T. brucei/HL-60” value in experiment [1] amounted to 2.7. Besides, the IC50 was found to be 120 µM in experiment [1] (setting [10]) and 325 µM in experiment [3] (setting [8]).
Take `O=c1c(O)c(-c2ccc(O)c(O)c2)oc2cc(O)cc(O)c12` [Quercetin]: the “IC50 ratio T. brucei/HL-60” value in experiment [1] is more than 6.1. For the same compound, the IC50 in experiment [1] (setting [6]) is 16.3 µM; in experiment [2] (setting [7]) it was 62.6 µM; in experiment [3] (setting [8]) it was more than 100 µM. The “IC50 ratio T. congolense/HL-60” value in experiment [2] is more than 1.6.
Take `O=c1cccccc1O` [Tropolone]: the “IC50 ratio T. brucei/HL-60” value in experiment [1] is reported as 0.5. Moreover, the 50% inhibitory concentration (IC50) is 12.5 µM in experiment [1] (setting [6]), 18.7 µM in experiment [2] (setting [7]) and 6.2 µM in experiment [3] (setting [8]). Besides, the “IC50 ratio T. congolense/HL-60” value in experiment [2] amounted to 0.3.
On to `CC(=O)NCC(=O)O.CC(=O)NCC(=O)O.N=C(N)c1ccc(N=NNc2ccc(C(=N)N)cc2)cc1` [diminazene aceturate], for which the IC50 in experiment [4] is 0.5 µM.
In the case of `Cc1ccc(C(=O)Nc2ccc(S(=O)(=O)O)c3cc(S(=O)(=O)O)cc(S(=O)(=O)O)c23)cc1NC(=O)c1cccc(NC(=O)Nc2cccc(C(=O)Nc3cc(C(=O)Nc4ccc(S(=O)(=O)O)c5cc(S(=O)(=O)O)cc(S(=O)(=O)O)c45)ccc3C)c2)c1` [suramin], the IC50 in experiment [5] (bloodstream forms of T. brucei 427-221a, identical experimental conditions) is 0.4 µM. Also, the “IC50 ratio (selectivity index)” value in experiment [5] (cytotoxic/trypanocidal activity, drug used for sleeping sickness) is 1944.
